Experimental data reported in ChEMBL document CHEMBL1201862, “PubChem BioAssay data set” (2004).
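How tested: cells in 96-well plates exposed to compound for 48 hours at five concentrations. GI50 marks 50% less growth.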 Activity calls are given as the source filed them. Cut-off read from the data, not from the text of the source: active = GI50 up to about 1.1 µM and inactive = higher.

Legend:
Test in all cases: inhibition of tumour cell growth, NCI panel, 48 h
BT-549 = tested on: BT-549
UO-31 = tested on: UO-31
NCI-H23 = tested on: NCI-H23
RXF 393 = tested on: RXF 393
SK-MEL-5 = tested on: SK-MEL-5
T47D = tested on: T47D
SK-MEL-2 = tested on: SK-MEL-2
HOP-92 = tested on: HOP-92
OVCAR-8 = tested on: OVCAR-8
786-0 = tested on: 786-0
LOX IMVI = tested on: LOX IMVI
HOP-62 = tested on: HOP-62
RPMI-8226 = tested on: RPMI-8226
NCI-H226 = tested on: NCI-H226
SF-539 = tested on: SF-539
CCRF-CEM = tested on: CCRF-CEM
UACC-62 = tested on: UACC-62
SW-620 = tested on: SW-620
NCI/ADR-RES = tested on: NCI/ADR-RES
SN12C = tested on: SN12C

Measured: GI50

Cc1cn([C@@H]2O[C@H](CO)[C@@H](O)[C@@H]2O)c(=O)[nH]c1=O
inactive: BT-549 > 1000 µM | UO-31 > 1000 µM | NCI-H23 > 1000 µM | RXF 393 > 1000 µM | SK-MEL-5 > 1000 µM | T47D > 1000 µM | SK-MEL-2 > 1000 µM | HOP-92 > 1000 µM | OVCAR-8 > 1000 µM | 786-0 > 1000 µM | LOX IMVI > 1000 µM | HOP-62 > 1000 µM | RPMI-8226 > 1000 µM | NCI-H226 > 1000 µM | SF-539 > 1000 µM | CCRF-CEM > 1000 µM | UACC-62 > 1000 µM | SW-620 > 1000 µM | NCI/ADR-RES > 1000 µM | SN12C > 1000 µM

Cc1cc(Cc2c(F)c(F)c(C(c3cc(C)no3)c3c(F)c(F)c(F)c(F)c3F)c(F)c2F)on1 (stereo not given)
inactive: BT-549 > 100 µM | UO-31 > 100 µM | NCI-H23 > 100 µM | RXF 393 2.34 µM | SK-MEL-5 7.16 µM | T47D > 100 µM | SK-MEL-2 9.71 µM | HOP-92 > 100 µM | OVCAR-8 > 100 µM | 786-0 > 100 µM | LOX IMVI > 46.1 µM | HOP-62 > 100 µM | RPMI-8226 33.5 µM | NCI-H226 > 100 µM | SF-539 17.9 µM | CCRF-CEM 62.7 µM | UACC-62 > 27 µM | SW-620 8.02 µM | NCI/ADR-RES > 28.2 µM | SN12C > 50.7 µM

Cc1ccc(OCC2OC(n3cnc4c(Cl)nc(N)nc43)CC2Oc2ccc(C)cc2)cc1 (stereo not given)
inactive: BT-549 43.3 µM | UO-31 4.58 µM | NCI-H23 19.2 µM | RXF 393 39.9 µM | SK-MEL-5 30.9 µM | T47D 20.3 µM | SK-MEL-2 > 38.1 µM | HOP-92 11 µM | OVCAR-8 31.9 µM | 786-0 55.5 µM | LOX IMVI 47.9 µM | HOP-62 > 36.1 µM | RPMI-8226 33 µM | NCI-H226 > 43.5 µM | SF-539 > 55.7 µM | CCRF-CEM > 74.6 µM | UACC-62 > 63.5 µM | SW-620 > 55.3 µM | NCI/ADR-RES 34.4 µM | SN12C 10.4 µM

CC(C)NC(=O)OCc1c(COC(=O)NC(C)C)c(-c2ccc[n+](COC(=O)C3CCCCC3)c2)n2c1CCC2
inactive: BT-549 48.1 µM | UO-31 40.6 µM | NCI-H23 28.6 µM | RXF 393 38.9 µM | SK-MEL-5 70.8 µM | T47D 57.8 µM | SK-MEL-2 44.6 µM | HOP-92 39.4 µM | OVCAR-8 51.2 µM | 786-0 28.1 µM | LOX IMVI 31.6 µM | HOP-62 37.7 µM | RPMI-8226 > 100 µM | NCI-H226 > 100 µM | SF-539 35.8 µM | CCRF-CEM > 100 µM | UACC-62 24.8 µM | SW-620 57.4 µM | NCI/ADR-RES 60 µM | SN12C 47.6 µM

O=C(CC1(O)C(=O)Nc2c(Cl)ccc(Cl)c21)c1ccco1 (stereo not given)
inactive: BT-549 36.5 µM | UO-31 35.8 µM | NCI-H23 15.2 µM | RXF 393 19.4 µM | SK-MEL-5 17.8 µM | T47D 35.6 µM | SK-MEL-2 26.1 µM | HOP-92 22.3 µM | OVCAR-8 27.2 µM | 786-0 15.5 µM | LOX IMVI 10.9 µM | HOP-62 29.6 µM | RPMI-8226 16.8 µM | NCI-H226 19.7 µM | SF-539 27.9 µM | CCRF-CEM 5.09 µM | UACC-62 13.5 µM | SW-620 20.1 µM | NCI/ADR-RES 23.7 µM | SN12C 17.3 µM

O=[N+]([O-])c1cc2oc(CSc3ccccc3)nc2cc1Cl
inactive: BT-549 23.4 µM | UO-31 35.9 µM | NCI-H23 26.7 µM | RXF 393 26.4 µM | SK-MEL-5 16.6 µM | T47D 24.9 µM | SK-MEL-2 26 µM | HOP-92 26.6 µM | OVCAR-8 33.5 µM | 786-0 34.6 µM | LOX IMVI 35.3 µM | HOP-62 41.7 µM | RPMI-8226 40.9 µM | NCI-H226 29.6 µM | SF-539 32.7 µM | CCRF-CEM 37.5 µM | UACC-62 36.2 µM | SW-620 43.9 µM | NCI/ADR-RES 12.9 µM | SN12C 29.9 µM
